Data from article PMC10791743, “Selective CK1α degraders exert antiproliferative activity against a broad range of human cancer cell lines” (Nature Communications, 2024).

Tested on: β-catenin
Experiment: HiBiT-β-catenin stabilization, live-cell kinetic (HEK293 cells)
Assay type: cell-based
Experimental: Next, TMT-proteomics studies were performed to determine broader degradation selectivity profiles of our two lead compounds. […] As expected, increased protein levels of p53, p21, and β-catenin were detected in the treated cells. To investigate the relationship between β-catenin stabilization relative to CK1α degradation, kinetic monitoring of endogenously tagged HiBiT-β-catenin was performed in live cells and compared to our measurements of CK1α degradation kinetics. Treatment of cells with the lead compounds from each series led to dose-dependent stabilization of β-catenin levels with slower kinetics compared to the observed rapid degradation of CK1α. […]
White 96-well assay plates (Corning, Cat. # 3017) were seeded with 30,000 cells/well in growth media for CK1α-HiBiT HEK293 LgBiT stable and HiBiT-β-catenin HEK293 LgBiT stable and incubated overnight at 37 °C and 5% CO2. […] Luminescence was allowed to equilibrate for all plates for 2.5 h. […] Luminescence was read every 5 min for 24 h. At the end of all 24-h cycles, CellTiter Glo 2.0 (Promega, Cat. #G9242) was added to the plates, incubated for at least 10 min and luminescence was read using the GloMax Discover.
Relative protein level was determined based on normalization to the DMSO control and reported at Fractional RLUs. […]

In the case of O=C1CCC(N2Cc3cc(Nc4noc5ccccc45)ccc3C2=O)C(=O)N1 (stereo not shown) [SJ3149], the “Time to detectable increase of β-catenin” value is reported as at most 30 min.
